Assay results from patent US4224343A, “Process and composition for decreasing blood serum prolactin levels” (Massachusetts Institute of Technology, priority 1979, dated 1980).
Values joined by “and” are separate entries in the source; they are usually repeats but may differ in a detail not shown here. Equal values may be shown once. Read-outs that look alike come from different tables or passages of the source.

How the values were obtained:
[1] = system: Norepinephrine synthesis and turnover in brain neurons; assay: Brain tyrosine and MOPEG-SO4 in rats exposed to cold (4° C.) after amino acid injection (FIG. 1)
Excerpt: (§1) Male Sprague-Dawley rats (Charles River Breeding Laboratories, Wilmington, MA) weighing 150 g were housed in hanging cages (6-8 per cage), given ad libitum access to tap water and a 26% protein diet (Charles River Rat-Mouse-Hamster Maintenance Formula 24RF), and maintained under light (300 microwatts/cm^2; Vita-Lite, Duro-Test Corp., North Bergen, N.J.) between 8 AM and 8 PM daily. Rats used for diet experiments were fasted overnight and then allowed to consume the experimental diet starting at 10 AM. Diets of different compositions were prepared in agar gel ([…] of water) as described by Gibson et al., Biochem. Pharmacol., 26, 1137-1142 (1977). All amino acids and drugs were injected intraperitoneally.
(§2) Norepinephrine synthesis and turnover in brain neurons were estimated by measuring the rate of accumulation of MOPEG-SO4 after probenecid administration or exposure to a cold environment. […] An aliquot of each homogenate (in 0.15 M ZnSO4) was first assayed for tyrosine by the method of Waalkes and Undenfriend, J. Lab. Clin. Med., 50, 733-736 (1957). An equal volume of 0.15 M barium hydroxide was then added to the remaining homogenate, which was rehomogenized (Polytron, Brinkman Instruments, N.Y.), centrifuged and assayed for MOPEG-SO4 by the method of Meek and Neff above.
In experiments on stress produced by exposure to cold, animals received the more soluble ethyl-ester form of tyrosine (J. T. Baker, Phillipsburg, N.J.), instead of tyrosine itself, to raise brain tyrosine levels. Data were analyzed by one-way or two-way analysis of variance.
Placing the rats in a cold environment (4° C.) increases norepinephrine turnover; this accelerates the formation of both norepinephrine itself and its metabolite, MOPEG-SO4, in brain neurons. The rats were exposed to cold to determine whether treatments that changed brain tyrosine levels could influence the rate at which the brain accumulates MOPEG-SO4 in rats exposed to cold stress and not given probenecid (FIG. 1).
The relationship shown in FIG. 1 was obtained as follows: Groups of rats were injected intraperitoneally with valine (200 mg/kg), an amino acid that competes with tyrosine for uptake into the brain (8), or with tyrosine (125 mg/kg of the ethyl ester) or saline; 30 min. later they were placed in single cages in a cold (4° C.) environment. After 1 hr., all animals were killed, and their whole brains were analyzed for tyrosine and MOPEG-SO4. Control animals were injected with saline and left at room temperature (22° C.), also in a single cages, for 90 min. Each point represents the tyrosine and MOPEG-SO4 levels present in a single brain. Data were pooled from several experiments. […] In FIG. 1, the symbols are as follows: closed circles, animals pretreated with valine; open circles, animals pretreated with saline; closed squares, animals pretreated with tyrosine.

[2] = system: Norepinephrine synthesis and turnover in brain neurons; assay: Accumulation of brain MOPEG-SO4 after probenecid administration and pretreatment with tyrosine; settings: for Brain MOPEG-SO4 Level / Brain Tyrosine Level: killed 60 min after second injection, whole brain, mean ± SEM; for effect on brain MOPEG-SO4: substance given alone, versus diluent; for effect on brain tyrosine levels: tyrosine 100 mg/kg i.p., probenecid 400 mg/kg, two-way analysis of variance
Excerpt: as §1, §2
Tyrosine (Grand Island Biological Co., Long Island, N.Y.) and probenecid (Sigma Chemical Co., St. Louis, MO), which are poorly soluble in water, were dissolved in dilute NaOH; the solutions were then buffered to pH 7.4 with hydrochloric acid and brought to a known volume with saline. This yielded a fine suspension that was suitable for injection.
In each of 3 experiments, groups of 4-6 rats were injected with either a
dose of tyrosine (100 mg/kg, i.p.) known to accelerate brain dopa
synthesis or its diluent and, 30 min. later, with probenecid (400 mg/kg,
[…].) or its diluent. Animals were killed 60 min. after the second
injection, and their whole brains were analyzed for tyrosine and […]

Serum Prolactin = assay: Serum prolactin by radioimmunoassay in reserpine-treated rats; type: in vivo, rat
Description: Groups of 4 male rats received reserpine (2.5 mg/kg/day, divided into two equal doses each day) intraperitoneally for four days. On day 5, in the morning, no reserpine was administered, but instead half of the animals received tyrosine (200 mg/kg) or the vehicle (saline), and were killed two hours later. Sera were collected and assayed by radioimmunoassay for prolactin.

brain dopamine release = assay: Accumulation of HVA in corpora striata of rats given haloperidol or probenecid after tyrosine (FIG. 2); settings: for striatal HVA concentration: tyrosine 100 mg/kg or diluent, 20 min later haloperidol 2 mg/kg or probenecid 200 mg/kg i.p., sacrificed 70 min after second injection, corpora striata
Description: Male, 150 to 200 g Sprague-Dawley rats (Charles River Breeding Laboratories, Wilmington, MA) were exposed to light (Vita-Lite, Duro-Test Co., North Bergen, N.J.) between 9 AM and 9 PM daily and allowed access to Big Red Rat Chow (Charles River Breeding Laboratories) and water ad limitum. Drugs were injected intraperitoneally at a volume of 2 ml/kg body weight. […] Control animals received the appropriate diluents. […] Brains were quickly removed, and the striata were dissected out (Glowinski and Iverson, 1966), frozen on dry ice, and subsequently assayed for HVA. Tyrosine was assayed in homogenates of the remaining brain (Waalkes and Udenfriend, 1957).

[3] = target: T1, Striatal Tyrosine Hydroxylase (Rattus norvegicus, UniProt P04177); assay: Kms of striatal tyrosine hydroxylase after in vivo pretreatment; type: biochemical; settings: for Km: striatal homogenate of treated rats
T1 construct: 10,000 g supernatant of Triton X-100 homogenate of rat corpus striatum
T1 sequence (P04177 whole entry): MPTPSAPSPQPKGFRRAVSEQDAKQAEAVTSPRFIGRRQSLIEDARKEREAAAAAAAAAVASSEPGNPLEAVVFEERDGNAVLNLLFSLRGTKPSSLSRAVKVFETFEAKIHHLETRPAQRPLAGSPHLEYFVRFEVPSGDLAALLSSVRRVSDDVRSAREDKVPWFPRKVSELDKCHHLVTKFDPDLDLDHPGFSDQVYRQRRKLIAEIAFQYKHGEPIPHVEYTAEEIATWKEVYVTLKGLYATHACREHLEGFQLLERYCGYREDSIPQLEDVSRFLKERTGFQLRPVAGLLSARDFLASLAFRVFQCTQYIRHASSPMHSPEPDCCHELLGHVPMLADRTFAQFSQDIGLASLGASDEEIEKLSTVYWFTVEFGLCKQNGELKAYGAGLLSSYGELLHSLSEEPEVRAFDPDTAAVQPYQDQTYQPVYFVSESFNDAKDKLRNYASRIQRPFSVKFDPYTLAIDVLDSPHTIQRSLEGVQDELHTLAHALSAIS
Description: Corpora striata were homogenized in 10 volumes of 0.05 M Tris-acetate buffer (pH 6.0), containing 0.2 percent Triton X-100 (Harleco, Philadelphia, PA). The homogenates were centrifuged for 10 min. at 10,000 g, and the supernatant fluids were collected for assay (Coye, 1972). The assay medium contained, in a total volume of 110 μl: 50 μl of a supernatant fluid; 65 nmoles of DMPH4 (2-amino-4-hydroxy-6,7-dimethyl-5,6,7,8-tetrahydropteridine hydrochloride [synthetic cofactor obtained from Calbiochem, San Diego, CA]); 29 nanomoles of pyridoxal phosphate; 4 nanomoles of 2-mercaptoethanol; 240 units of catalase; 0.01 millimoles phosphate buffer (pH 6.2); and 10 μl of aromatic L-amino acid decarboxylase prepared from hog kidneys (Coyle, 1972). Samples were preincubated for 2 min. at 27° C.
The assay was stopped by the addition of 0.5 ml of 10 percent trichloroacetic acid. The acidified medium was then shaken for 2 hours to recover the ^14 CO2, which was trapped by folded filter paper strips placed in 0.2 ml of NCS tissue solubilizer (Amersham/Searle, Arlington Heights, IL). The strips were then transferred to scintillation vials containing 10 ml of Aquasol (New England Nuclear, Boston, MA), and their radioactivity was counted.

[4] = tyrosine 125 mg/kg of the ethyl ester i.p., cold (4° C.) 1 hr
[5] = pretreatment (tyrosine 100 mg/kg i.p. or diluent), 30 min later probenecid 400 mg/kg
[6] = pretreatment tyrosine 100 mg/kg i.p., 30 min later diluent

CC(C)[C@H](N)C(=O)O [valine, reference compound]
effect on brain tyrosine or MOPEG-SO4 levels ([1]; valine 200 mg/kg i.p., cold (4° C.) 1 hr): failed, in this study, to cause significant alterations

N[C@@H](Cc1ccc(O)cc1)C(=O)O [Tyrosine, tyrosine]
brain tyrosine levels ([1]; i.p. injection (tyrosine 125 mg/kg of the ethyl ester; valine 200 mg/kg) 30 min before 1 hr in cold (4° C.), whole brain): 24.6 µg/g
brain MOPEG-SO4 levels ([1]; tyrosine 125 mg/kg of the ethyl ester i.p. 30 min before 1 hr in cold (4° C.), whole brain): 193 ng/g
rise in brain MOPEG-SO4 versus saline-injected animals [1, 4]: 70%
rise in brain tyrosine levels versus saline-injected animals [1, 4]: about 80%
Brain MOPEG-SO4 Level [2, 5]: 203 ng/g and 203 ± 8 ng/g
Brain Tyrosine Level [2, 5]: 24.7 ± 1.3 µg/g
Brain MOPEG-SO4 Level [2, 6]: 127 ± 2 ng/g
Brain Tyrosine Level [2, 6]: 23.3 ± 1.5 µg/g
effect on brain MOPEG-SO4 [2]: no effect
effect of tyrosine pretreatment on the probenecid-induced rise in MOPEG-SO4 ([2]; tyrosine 100 mg/kg i.p. 30 min before probenecid 400 mg/kg): significantly enhanced
effect on brain tyrosine levels [2]: significantly raised
Serum Prolactin (Serum Prolactin; male rats, reserpine […] i.p. for four days, day 5 tyrosine 200 mg/kg, killed two hours later, mean ± standard error): 44 ± 2 ng/mL
effect on serum prolactin levels (Serum Prolactin; reserpine-pretreated rats, tyrosine 200 mg/kg): lowers serum prolactin levels
potentiation of the accumulation of HVA in striata of haloperidol-treated rats (brain dopamine release; tyrosine 100 mg/kg 20 min before haloperidol 2 mg/kg): 59%
effect on HVA levels in animals given probenecid (brain dopamine release; tyrosine 100 mg/kg 20 min before probenecid 200 mg/kg): failed
effect of prior administration on the Kms of tyrosine hydroxylase for tyrosine or DMPH4 in vitro ([3]; tyrosine 100 mg/kg in vivo): failed to affect

O=C(CCCN1CCC(O)(c2ccc(Cl)cc2)CC1)c1ccc(F)cc1 [Haloperidol, haloperidol]
striatal HVA concentration (brain dopamine release): 2.00 ± 0.10 µg/g
Km ([3]; DMPH4 concentrations 0.1 to 0.5 mM, read-out: Km for DMPH4): 130 ± 10 µM
Km ([3]; tyrosine concentrations 0.125-1.0 mM, read-out: Km for tyrosine): 48.1 ± 1.9 µM

CCCN(CCC)S(=O)(=O)c1ccc(C(=O)O)cc1 [Probenecid, probenecid, reference compound]
Brain MOPEG-SO4 Level [2, 5]: 175 ng/g and 175 ± 6 ng/g
effect on brain MOPEG-SO4 [2]: significantly raised
effect on brain tyrosine levels [2]: failed to modify
striatal HVA concentration (brain dopamine release): 1.30 ± 0.10 µg/g
